Reference: US20120130146A1, “CONTINUOUS ADMINISTRATION OF CILENGITIDE IN CANCER TREATMENTS” (Merck Patent GmbH, priority 2009, published 2012)
Where “and” joins values, the source holds several entries; their conditions need not be identical. Equal entries are not always repeated. Entries after “also recorded” stand apart in the source; their conditions may differ.

Experiments:
[1] = test system: recurrent glioblastoma (GBM); experiment: Phase IIa trial of cilengitide single agent therapy in patients with recurrent glioblastoma; type: in vivo, human
Experimental: Background: The present phase IIa study was designed to evaluate the safety, toxicity, and clinical activity of the cyclic RGD pentapeptide cilengitide((=cyclo-(Arg-Gly-Asp-DPhe-NMe-Val)), an inhibitor of integrins avβ3 and avβ5, as a single agent at doses of 500 and 2000 mg in patients (pts) with recurrent glioblastoma (GBM).
Methods: in this multicenter, open-label, randomized, uncontrolled study, pts with GBM and measurable disease that had relapsed after previous therapy with temozolomide and radiotherapy were randomized to receive cilengitide at doses of either 500 mg or 2000 mg i.v., 2×/week, until progression. Histopathology diagnosis and MRI imaging were subject to independent blinded review. The primary endpoint was Progression Free Survival (PFS) at 6 months (mths). Secondary endpoints included response, survival, time to disease progression, safety, tolerability and pharmacokinetics.

[2] = Continuous infusion study pharmacokinetics (plasma); type: in vivo, human; settings: for EMD 121974 Concentrations / CL / V / ke / Css: individual subjects; for CL: CL=Rate/Css; for V, Mean / ke, Mean / V: t1/2 = 4 hours; for V: V=CL/ke; for ke: for t1/2 = 4 hours; for Css: mean of 168 h to 506 h values per patient
Experimental: Patients with solid tumors received a continuous infusion of 1 mg/h, 2 mg/h, 4 mg/h, 8 mg/h or 12 mg/h. with a weekly change of infusion bag.
Blood samples were taken on Day 1 (first dose) at pre-dose and 2 h after start of infusion and then weekly just before change of infusion bag and 2 hours thereafter for the first 4 weeks.
The following pharmacokinetic parameters were derived at Merck KGaA. Darmstadt, Germany, by mathematical methods using Kinetica Version 4.1.1.
CL the total body clearance of EMD 121974 from plasma Css plasma concentration at steady state ke elimination rate constant Rate infusion rate t1/2, half life V Volume of distribution
Css, the plasma concentration at steady state, has been estimated by the arithmetic mean of all concentration values from time point 168 h to 506 h per patient.
From Css and t1/2 the PK parameters CL, ke and V were calculated as follows: […]

[3] = Rate 1 mg/h, listed as EMD 121974
[4] = Rate 2 mg/h, listed as EMD 121974
[5] = Rate 4 mg/h, listed as EMD 121974
[6] = Rate 8 mg/h, listed as EMD 121974

## CC(C)[C@H]1C(=O)N[C@@H](CCCN=C(N)N)C(=O)NCC(=O)N[C@@H](CC(=O)O)C(=O)N[C@H](Cc2ccccc2)C(=O)N1C [Cilengitide, cyclo-(Arg-Gly-Asp-DPhe-NMeVal)]
[1]; 500 mg arm
  median Overall Survival (mOS): 6.5 mths
[1]; 1 cycle = 4 weeks, both dose arms
  pts who received 12 or more cycles of therapy: 12.3%
[1]; 2000 mg arm
  median Overall Survival (mOS): 9.9 mths
[1]; 500 or 2000 mg i.v. 2x/week, all 81 pts
  PFS rate at 6 mths: 16.1%
[1]; at 500 mg, in 1 patient each
  Treatment related NCI CTC grade 3 adverse events: elevated liver enzymes; also recorded: arthralgia/myalgia
[1]; at 2000 mg, in 1 patient
  Treatment related NCI CTC grade 3 adverse events: weight increase/edema
[1]; at the time the abstract was issued
  pts still progression-free and on treatment: 7.4%
[1]; both dose arms
  grade 4 therapy related AEs: No grade 4 therapy related AEs
[1]; human, in vivo
  single agent activity in recurrent glioblastoma: advantagous single agent activity
[1]; possibly related either to the drug or to the disease
  cerebral hemorrhage: One CTC grade 2 cerebral hemorrhage
[1]; single agent therapy at two dose levels
  tolerability: tolerated well
[2]; 12 mg/h dose level and below
  Mean values for half-life, clearance, and volume of distribution across dose levels: comparable across dose levels
[2]; Rate 1 mg/h, 0 h (pre-dose)
  EMD 121974 Concentrations: Undetectable
[2]; Rate 1 mg/h, 2 h, listed as EMD 121974
  EMD 121974 Concentrations: 42.90 ng/mL and Undetectable
[2]; Rate 1 mg/h, 168 h, listed as EMD 121974
  EMD 121974 Concentrations: 240.00 ng/mL
[2]; Rate 1 mg/h, 170 h, listed as EMD 121974
  EMD 121974 Concentrations: 156.00 ng/mL and 10.30 ng/mL
[2]; Rate 1 mg/h, 336 h, listed as EMD 121974
  EMD 121974 Concentrations: 324.00 ng/mL and 172.00 ng/mL
[2]; Rate 1 mg/h, 338 h, listed as EMD 121974
  EMD 121974 Concentrations: 321.00 ng/mL and 153.00 ng/mL
[2]; [3]
  CL: 3.84 L/h and 10.17 L/h and 10.93 L/h
  V: 22.2 L and 58.7 L and 63.1 L
  Css: 260.3 ng/mL and 98.4 ng/mL and 91.5 ng/mL
[2]; Rate 1 mg/h
  V, Mean: 48.0 L
  ke, Mean: 0.173 h⁻¹
  ke: 0.173 h⁻¹
[2]; Rate 2 mg/h, 0 h (pre-dose)
  EMD 121974 Concentrations: Undetectable
[2]; Rate 2 mg/h, 2 h, listed as EMD 121974
  EMD 121974 Concentrations: 162.00 ng/mL and Undetectable
[2]; Rate 2 mg/h, 168 h, listed as EMD 121974
  EMD 121974 Concentrations: 189.00 ng/mL and 498.00 ng/mL
[2]; Rate 2 mg/h, 170 h
  EMD 121974 Concentrations: 316.00 ng/mL
[2]; Rate 2 mg/h, 170 h, listed as EMD 121974
  EMD 121974 Concentrations: 244.00 ng/mL
[2]; Rate 2 mg/h, 336 h, listed as EMD 121974
  EMD 121974 Concentrations: 467.00 ng/mL and 523.00 ng/mL
[2]; Rate 2 mg/h, 338 h, listed as EMD 121974
  EMD 121974 Concentrations: 327.00 ng/mL and 392.00 ng/mL
[2]; Rate 2 mg/h, 504 h, listed as EMD 121974
  EMD 121974 Concentrations: 268.00 ng/mL and 485.00 ng/mL
[2]; Rate 2 mg/h, 506 h, listed as EMD 121974
  EMD 121974 Concentrations: 247.00 ng/mL and 427.00 ng/mL
[2]; [4]
  CL: 4.54 L/h
  V: 39.8 L and 26.2 L
  Css: 290.3 ng/mL and 440.2 ng/mL
[2]; Rate 2 mg/h
  V, Mean: 33.0 L
  ke, Mean: 0.173 h⁻¹
  ke: 0.173 h⁻¹
[2]; Rate 4 mg/h, 0 h (pre-dose)
  EMD 121974 Concentrations: Undetectable
[2]; Rate 4 mg/h, 2 h, listed as EMD 121974
  EMD 121974 Concentrations: 228.00 ng/mL and 303.00 ng/mL and 454.00 ng/mL
[2]; Rate 4 mg/h, 168 h, listed as EMD 121974
  EMD 121974 Concentrations: 467.00 ng/mL and 517.00 ng/mL and 894.00 ng/mL
[2]; Rate 4 mg/h, 170 h, listed as EMD 121974
  EMD 121974 Concentrations: 408.00 ng/mL and 372.00 ng/mL and 843.00 ng/mL and 439.00 ng/mL
[2]; Rate 4 mg/h, 336 h, listed as EMD 121974
  EMD 121974 Concentrations: 606.00 ng/mL and 847.00 ng/mL
[2]; Rate 4 mg/h, 338 h, listed as EMD 121974
  EMD 121974 Concentrations: 283.00 ng/mL and 644.00 ng/mL and 711.00 ng/mL and 597.00 ng/mL
[2]; Rate 4 mg/h, 504 h, listed as EMD 121974
  EMD 121974 Concentrations: 1170.00 ng/mL and 524.00 ng/mL and 482.00 ng/mL and 485.00 ng/mL
[2]; Rate 4 mg/h, 506 h, listed as EMD 121974
  EMD 121974 Concentrations: 776.00 ng/mL and 649.00 ng/mL and 618.00 ng/mL
[2]; [5]
  CL: 7.51 L/h and 5.96 L/h and 6.19 L/h
  V: 37.2 L and 43.3 L and 34.4 L and 35.7 L
  Css: 620.8 ng/mL and 532.6 ng/mL and 671.3 ng/mL and 646.7 ng/mL
[2]; Rate 4 mg/h
  V, Mean: 37.7 L
  ke, Mean: 0.173 h⁻¹
  ke: 0.173 h⁻¹
[2]; Rate 8 mg/h, 0 h (pre-dose)
  EMD 121974 Concentrations: Undetectable
[2]; Rate 8 mg/h, 2 h, listed as EMD 121974
  EMD 121974 Concentrations: 603.00 ng/mL and 445.00 ng/mL and 462.00 ng/mL
[2]; Rate 8 mg/h, 168 h, listed as EMD 121974
  EMD 121974 Concentrations: 1310.00 ng/mL and 881.00 ng/mL and 2190.00 ng/mL
[2]; Rate 8 mg/h, 170 h, listed as EMD 121974
  EMD 121974 Concentrations: 862.00 ng/mL and 958.00 ng/mL and 1820.00 ng/mL
[2]; Rate 8 mg/h, 336 h
  EMD 121974 Concentrations: 525.00 ng/mL
[2]; Rate 8 mg/h, 338 h, listed as EMD 121974
  EMD 121974 Concentrations: 424.00 ng/mL and 1520.00 ng/mL
[2]; Rate 8 mg/h, 504 h, listed as EMD 121974
  EMD 121974 Concentrations: 1610.00 ng/mL and 1440.00 ng/mL and 1830.00 ng/mL
[2]; Rate 8 mg/h, 506 h, listed as EMD 121974
  EMD 121974 Concentrations: 1590.00 ng/mL and 771.00 ng/mL and 1500.00 ng/mL
[2]; [6]
  CL: 5.96 L/h and 9.60 L/h and 4.51 L/h
  V: 34.4 L and 55.4 L and 26.1 L
[2]; Rate 8 mg/h
  V, Mean: 38.6 L
  ke, Mean: 0.173 h⁻¹
